Experimental data published in patent US20260137697A1, “THIAZOLO[5,4-D]PYRIMIDINE COMPOUNDS, COMPOSITIONS COMPRISING THEM AND USES THEREOF” (University de Montreal, priority 2022, published 2026).

Columns and labels:
[1] = target: T1, CRAF (Homo sapiens, UniProt P04049); experiment: CRAF kinase activity assay (ADP-Glo); format: biochemical; details: Table 3; 10 μM ATP, kinase-dead MEK1 substrate
T1 construct: fused on or other part: GST tag (N-terminal according to the vendor's product)
How it was run: (§1)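 ADP-Glo luminescence read after 2 h reactions at 30° C containing 0.375 nM GST-kinase, kinase-dead MEK1 (75 nM), ATP at 10 μM, pH 7.5 HEPES/MgCl2/DTT, 0.05% DMSO. Compounds dosed from 100 to 0.01 nM (nine points); IC50 from variable-slope fit of % inhibition.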

[2] = test system: A101D cells; experiment: Proliferation inhibition, CellTiter-Glo, A101D; format: cell-based, human; details: Table D-1; A101D (BRAF V600E), 3 days; read-out: Prolif. (proliferation EC50)
Procedure: All cancer cell lines (A375, A101D, A2058, RKO, HT29 SK-MEL 30, IPC298, HepG2, HCT-116, Lovo, SW620, SW480, NCI-H358, NCI-H2122, Calu-6, NCIH2087, NCIH1755, NCIH1666 and Mewo) were obtained from ATCC and cultured in RPM1-1640 medium (Gibco) supplemented with 5% heat inactivated fetal bovine serum (FBS, Wisent) at 37° C. under 5% CO2. Cells were maintained in T175 flasks (Greiner). They were passaged by removing the culture medium, washing once in 10 mL of room temperature Phosphate Buffered Saline (PBS; Wisent) and incubating at 37° C. with 2 mL of 0.05% Trypsin (Thermo-Fisher). […]
After 3 days of incubation, the growth media were removed by aspiration and 60 μL of diluted CellTiter-Glo® reagent (10 μL CellTiter-Glo® reagent+50 μL of PBS) was added to each well. […] Luminescence signals were then acquired on a Synergy Neo2 plate reader (Biotek).
The effect of each compound dilution on the proliferation of cancer cell lines was expressed in % inhibition and calculated as follows. […]
The ability of each compound to inhibit proliferation was expressed as a EC50 value obtained by plotting the effect values for each data point of a dilution series and fitting the obtained curves using a log(agonist) versus response—variable slope (four parameters) function using GraphPadPrism (V7.0) or Dotmatics Screening Ultra platform.

[3] = target: T2, BRAF (Homo sapiens, UniProt P15056); experiment: BRAF kinase activity assay (ADP-Glo); format: biochemical; details: Table 3; 10 μM ATP, kinase-dead MEK1 substrate
T2 construct: GST; purchased Millipore Sigma B4062-10UG
How it was run: as §1

T1 sequence (P04049 whole entry Y340E/Y341E, form open, the tested form may be a part): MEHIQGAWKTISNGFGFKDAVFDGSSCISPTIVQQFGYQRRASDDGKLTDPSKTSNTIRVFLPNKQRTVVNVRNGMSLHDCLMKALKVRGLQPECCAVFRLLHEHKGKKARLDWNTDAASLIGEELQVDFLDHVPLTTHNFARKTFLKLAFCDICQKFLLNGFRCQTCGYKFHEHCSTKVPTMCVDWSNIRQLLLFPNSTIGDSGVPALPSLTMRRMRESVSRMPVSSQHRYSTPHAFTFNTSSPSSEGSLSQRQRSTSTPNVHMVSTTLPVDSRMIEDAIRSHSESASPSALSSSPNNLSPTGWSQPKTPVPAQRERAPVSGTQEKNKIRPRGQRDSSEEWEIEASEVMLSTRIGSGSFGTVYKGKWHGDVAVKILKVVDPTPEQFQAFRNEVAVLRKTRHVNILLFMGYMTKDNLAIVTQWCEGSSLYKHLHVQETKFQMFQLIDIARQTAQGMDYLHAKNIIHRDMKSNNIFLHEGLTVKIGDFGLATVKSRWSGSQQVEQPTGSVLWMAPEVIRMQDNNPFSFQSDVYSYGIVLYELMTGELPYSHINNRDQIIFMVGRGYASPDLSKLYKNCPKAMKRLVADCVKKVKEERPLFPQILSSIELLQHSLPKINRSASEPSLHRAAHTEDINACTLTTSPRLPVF
T2 sequence (P15056 whole entry): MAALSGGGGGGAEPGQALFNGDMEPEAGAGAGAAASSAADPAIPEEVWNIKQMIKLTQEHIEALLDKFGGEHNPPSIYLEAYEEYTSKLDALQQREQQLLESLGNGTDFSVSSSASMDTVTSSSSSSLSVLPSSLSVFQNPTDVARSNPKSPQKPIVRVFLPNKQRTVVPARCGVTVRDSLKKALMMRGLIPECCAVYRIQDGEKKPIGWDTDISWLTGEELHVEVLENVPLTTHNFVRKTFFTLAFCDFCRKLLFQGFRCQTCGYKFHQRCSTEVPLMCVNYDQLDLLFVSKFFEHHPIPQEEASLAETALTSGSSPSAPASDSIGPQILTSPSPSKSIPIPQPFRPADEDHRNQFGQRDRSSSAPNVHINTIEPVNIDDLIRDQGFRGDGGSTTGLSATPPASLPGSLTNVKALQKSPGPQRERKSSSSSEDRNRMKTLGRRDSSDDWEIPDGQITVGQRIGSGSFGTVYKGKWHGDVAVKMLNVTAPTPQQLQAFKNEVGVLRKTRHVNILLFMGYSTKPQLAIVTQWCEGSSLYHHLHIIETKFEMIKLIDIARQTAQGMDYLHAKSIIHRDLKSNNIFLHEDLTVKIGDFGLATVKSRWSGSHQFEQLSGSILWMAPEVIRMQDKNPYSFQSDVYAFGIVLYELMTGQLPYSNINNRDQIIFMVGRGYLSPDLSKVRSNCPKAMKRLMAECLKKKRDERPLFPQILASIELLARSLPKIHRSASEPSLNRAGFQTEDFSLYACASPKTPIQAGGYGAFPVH

Row | SMILES | IC50 [1] [µM] | EC50 [2] [µM] | IC50 [3] [µM]
1 | N#CC1(c2cccc3c2ncn3-c2nc3c(Nc4c(F)ccc(NS(=O)(=O)c5cccc(Cl)c5Cl)c4F)ncnc3s2)CC1 [Example 122] | < 0.01 | < 0.3 | 0.001 to 0.01
2 | Cc1c(F)cccc1S(=O)(=O)Nc1ccc(F)c(Nc2ncnc3sc(-n4cc(C(=O)N5C6CCC5CN(C)C6)c5ccccc54)nc23)c1F [Example 44] | < 0.01 | < 0.3 | < 0.001
